The results in this text go back to patent publication US20090130261A1, “Vit-A-Cup” (priority 2007, published 2009).

Read-outs that look alike come from different tables or passages of the source.

The nature of series [1]: solubility characteristics of additives. The source says: (§1) The differing chemical characteristics of the various additives require each ingredient or blend of ingredients to be dissolved or suspended in a customized matrix in order to ensure desired delivery of the additive in question. […] A number of characteristics were studied for each desired additive compound or complex, such as the degree of chemical affinity to water, solubility rates in various solvents and at various levels of pH, and degradation rates upon exposure to various environmental factors including oxygen levels in ambient air and temperature, as well as individual tolerance to extreme shifts in pH levels.
This is accomplished, for example, in a suspension of 3% Xanthan gum and 0.5% Noveon Carbopol Carbomer in distilled water with 20% Ethanol (to aid in speeding the drying time). This solution is then sprayed on to the interior of the cup and allowed to dry. […] Again, this would be delivered in a flavor-masked suspension of 3% Xanthan gum and 0.5% Noveon Carbopol Carbomer.

Series [2] is described as follows: compatibility and stability of additives dissolved or suspended in water-based polyacrylic acid carbomer matrixes. The note with it: for compatibility in carrier matrix: short term.
From the text: as §1

Setting [3] is: dissolved or suspended in water-based polyacrylic acid carbomer matrixes.
[4] abbreviates: require suspension prior to administration to the cup.

Turning to `[Cu]` [Copper], the solubility result in series [1] is given as “Insoluble”. For the compound `NCC(=O)O` [Glycine], the “stability in carrier matrix” value in series [2] is reported as “stable”. Moreover, in series [2] (setting [3]), the “compatibility in carrier matrix” value is reported as “compatible”. Turning to `O=C(O)[C@@H]1CCCN1` [Proline], the “stability in carrier matrix” value in series [2] is recorded as “stable”. In series [2] (setting [3]), the “compatibility in carrier matrix” value was “compatible”. In the case of `N[C@@H](Cc1ccc(O)cc1)C(=O)O` [Tyrosine], the “stability in carrier matrix” value in series [2] is recorded as “stable”. For the same compound, the “compatibility in carrier matrix” value in series [2] (setting [3]) is reported as “compatible”. Turning to `[Mo]` [Molybdenum], the solubility entry in series [1] is “Insoluble”.

Consider `Nc1nc2ncc(CNc3ccc(C(=O)N[C@@H](CCC(=O)O)C(=O)O)cc3)nc2c(=O)[nH]1` [Folic Acid], for which, in series [1], the solubility result is on record as “Insoluble”. For the compound `CC[C@H](C)[C@H](N)C(=O)O` [Isoleucine], in series [2], the “stability in carrier matrix” value is “stable”. In addition, the “compatibility in carrier matrix” value in series [2] (setting [3]) is “compatible”.

Turning to `NC(=O)CC[C@H](N)C(=O)O` [Glutamine], in series [2], the “stability in carrier matrix” value was “stable”. In addition, the “compatibility in carrier matrix” value in series [2] (setting [3]) is “compatible”. For the compound Vitamin E, the solubility result in series [1] is listed as “Insoluble”. Turning to `N[C@@H](CS)C(=O)O` [Cysteine], the “stability in carrier matrix” value in series [2] was “stable”. Besides, the “compatibility in carrier matrix” value in series [2] (setting [3]) is on record as “compatible”. Turning to `[Se]` [Selenium], the solubility entry in series [1] (setting [4]) is given as “Insoluble”. As for `N[C@@H](CO)C(=O)O` [Serine], the “stability in carrier matrix” value in series [2] is “stable”. The “compatibility in carrier matrix” value in series [2] (setting [3]) was “compatible”. With `NC(=O)C[C@H](N)C(=O)O` [Asparagine], the “stability in carrier matrix” value in series [2] is “stable”. In series [2] (setting [3]), the “compatibility in carrier matrix” value is listed as “compatible”. With `N[C@@H](CC(=O)O)C(=O)O` [Aspartic acid], in series [2], the “stability in carrier matrix” value is “stable”. In series [2] (setting [3]), the “compatibility in carrier matrix” value is “compatible”. On to Vitamin K, for which the solubility result in series [1] is reported as “Insoluble”.

Consider `CSCC[C@H](N)C(=O)O` [Methionine], for which the “stability in carrier matrix” value in series [2] is listed as “stable”. The “compatibility in carrier matrix” value in series [2] (setting [3]) is on record as “compatible”. As to `N[C@@H](Cc1c[nH]cn1)C(=O)O` [Histidine], in series [2], the “stability in carrier matrix” value was “stable”. The “compatibility in carrier matrix” value in series [2] (setting [3]) is reported as “compatible”.

For the compound `[Mg+2]` [Magnesium], in series [1] (setting [4]), the solubility entry is reported as “Insoluble”. Turning to `[Cr]` [Chromium], the solubility result in series [1] (setting [4]) is reported as “Insoluble”.

Take `N[C@@H](Cc1ccccc1)C(=O)O` [Phenylalanine]: in series [2], the “stability in carrier matrix” value is reported as “stable”. The “compatibility in carrier matrix” value in series [2] (setting [3]) is listed as “compatible”. `C[C@H](N)C(=O)O` [Alanine]: in series [2], the “stability in carrier matrix” value is reported as “stable”. In addition, the “compatibility in carrier matrix” value in series [2] (setting [3]) is “compatible”. As to `COC1=C(OC)C(=O)C(C/C=C(\C)CC/C=C(\C)CC/C=C(\C)CC/C=C(\C)CC/C=C(\C)CC/C=C(\C)CC/C=C(\C)CC/C=C(\C)CC/C=C(\C)CCC=C(C)C)=C(C)C1=O` [Coenzyme Q10], in series [1] (setting [4]), the solubility entry is reported as “Insoluble”. On to `NCCCC[C@H](N)C(=O)O` [Lysine], for which, in series [2], the “stability in carrier matrix” value is “stable”. Also, the “compatibility in carrier matrix” value in series [2] (setting [3]) is listed as “compatible”. As for `CC(C)C[C@H](N)C(=O)O` [Leucine], in series [2], the “stability in carrier matrix” value is reported as “stable”. Also, the “compatibility in carrier matrix” value in series [2] (setting [3]) was “compatible”. Turning to Cyanocobalamin [Vitamin B12], the “stability in carrier matrix” value in series [2] was “stable”. Moreover, in series [2] (setting [3]), the “compatibility in carrier matrix” value is listed as “compatible”. Consider `N[C@@H](Cc1c[nH]c2ccccc12)C(=O)O` [Tryptophan], for which the “stability in carrier matrix” value in series [2] was “stable”. In addition, the “compatibility in carrier matrix” value in series [2] (setting [3]) is reported as “compatible”.

For the compound `N=C(N)NCCC[C@H](N)C(=O)O` [Arginine], in series [2], the “stability in carrier matrix” value is given as “stable”. Besides, the “compatibility in carrier matrix” value in series [2] (setting [3]) was “compatible”. Regarding `CC(C)[C@H](N)C(=O)O` [Valine], in series [2], the “stability in carrier matrix” value is given as “stable”. The “compatibility in carrier matrix” value in series [2] (setting [3]) is “compatible”. Consider `O=C(O)CCCC[C@@H]1SC[C@@H]2NC(=O)N[C@@H]21` [Biotin], for which the “stability in carrier matrix” value in series [2] is “stable”. In series [2] (setting [3]), the “compatibility in carrier matrix” value is listed as “compatible”. On to `[Zn]` [Zinc], for which the solubility result in series [1] (setting [4]) was “Insoluble”. For `C[C@@H](O)[C@H](N)C(=O)O` [Threonine], the “stability in carrier matrix” value in series [2] was “stable”. In addition, the “compatibility in carrier matrix” value in series [2] (setting [3]) is recorded as “compatible”. In the case of `CC(C)(CO)[C@@H](O)C(=O)NCCC(=O)O` [Vitamin B5, Pantothenic Acid], the “stability in carrier matrix” value in series [2] is “stable”. In series [2] (setting [3]), the “compatibility in carrier matrix” value was “compatible”. In the case of `[Mn+2]` [Manganese], the solubility result in series [1] (setting [4]) was “Insoluble”. For `Cc1cc2nc3c(=O)[nH]c(=O)nc-3n(C[C@H](O)[C@H](O)[C@H](O)CO)c2cc1C` [Vitamin B2, Riboflavin], the “stability in carrier matrix” value in series [2] was “stable”. For the same compound, in series [2] (setting [3]), the “compatibility in carrier matrix” value is “compatible”.

For the compound `N[C@@H](CCC(=O)O)C(=O)O` [Glutamic acid], the “stability in carrier matrix” value in series [2] (dissolved or suspended in water-based polyacrylic acid carbomer matrixes, longer term) is listed as “stable”. In series [2] (setting [3]), the “compatibility in carrier matrix” value is on record as “compatible”. Consider `Cc1ncc(CO)c(CO)c1O` [Vitamin B6, Pyridoxine], for which, in series [2], the “stability in carrier matrix” value is “stable”. Moreover, the “compatibility in carrier matrix” value in series [2] (setting [3]) is “compatible”.

Consider `C[N+](C)(C)CCO` [Choline], for which the “stability in carrier matrix” value in series [2] is reported as “stable”. In the case of `CC1=C(/C=C/C(C)=C/C=C/C(C)=C/C=C/C=C(C)/C=C/C=C(C)/C=C/C2=C(C)CCCC2(C)C)C(C)(C)CCC1` [Vitamin A, Beta-Carotene], in series [2], the “stability in carrier matrix” value is “stable”. Also, the “compatibility in carrier matrix” value in series [2] (setting [3]) is reported as “compatible”.

On to `Cc1ncc(C[n+]2csc(CCO)c2C)c(N)n1` [Vitamin B1, Thiamine], for which the “stability in carrier matrix” value in series [2] was “stable”. Also, the “compatibility in carrier matrix” value in series [2] (setting [3]) is on record as “compatible”. Consider Iodine, for which, in series [1] (setting [4]), the solubility result was “Insoluble”. Take `[K+]` [Potassium]: in series [1], the solubility result is listed as “Insoluble”. As for `Nc1ccc(C(=O)O)cc1` [PABA, Para-Aminobenzoic Acid], in series [1] (setting [4]), the solubility entry is recorded as “Insoluble”.

Consider Vitamin D, for which the solubility result in series [1] (setting [4]) is “Insoluble”.
